For orientation: MIC means the lowest concentration found to suppress growth. Low readings indicate inhibition by little substance, high ones a need for much substance.

Converted amounts (≈) assume the structure as drawn. The source made the active and inactive calls. The calls are words filed in the database; no cut-off is given here.

A short description of assay [1]: Antimicrobial activity against Salmonella enterica serovar Kentucky by broth microdilution assay. For orientation: Broth dilution looks for growth in wells or tubes with falling amounts of substance.
Assay [2] deals with Escherichia coli. As to the kind of experiment: Antimicrobial activity against Escherichia coli DH10B harboring p2007057 by broth microdilution assay. Format: functional. The settings on record: K-12 DH10B.
For assay [3], the system named is Escherichia coli. Nature of the assay: Antimicrobial activity against Escherichia coli DH10B harboring pBR322 by broth microdilution assay. Format: functional. The settings on record: K-12 DH10B.
Assay [4] can be described thus: Antimicrobial activity against Salmonella enterica serovar Bovismorbificans by broth microdilution assay. Format: functional, Salmonella enterica subsp. enterica serovar Bovismorbificans.
For assay [5], the system named is Escherichia coli. Nature of the assay: Antimicrobial activity against Escherichia coli DH10B harboring pBR322 with Salmonella enterica HN-GSS-2007-057 qnrS1 gene by broth microdilution assay. Format: functional. The settings on record: K-12 DH10B.
Assay [6] relates to Escherichia coli. As to the kind of experiment: Antimicrobial activity against Escherichia coli DH10B harboring pBR322 with Salmonella enterica HN-GSS-2007-057 qnrD gene by broth microdilution assay. Format: functional. The settings on record: K-12 DH10B.
The subject of assay [7] is Escherichia coli. As to the kind of experiment: Antimicrobial activity against Escherichia coli DH10B by broth microdilution assay. Format: functional. The settings on record: K-12 DH10B.
Assay [8] deals with Escherichia coli. Nature of the assay: Antimicrobial activity against Escherichia coli DH10B harboring pBR322 with Salmonella enterica HN-GSS-2007-057 qnrA1 gene by broth microdilution assay. Format: functional. The settings on record: K-12 DH10B.
The test system of assay [9] is Salmonella enterica. Nature of the assay: Antimicrobial activity against Salmonella enterica HN-GSS2007-0.056 by broth microdilution assay. Format: functional, organism-based.
Assay [10] deals with Salmonella enterica. As to the kind of experiment: Antimicrobial activity against Salmonella enterica HN-GSS-2007-057 by broth microdilution assay. Format: functional, organism-based.
The test system of assay [11] is Salmonella enterica. As to the kind of experiment: Antimicrobial activity against Salmonella enterica HN-GSS2006-142 by broth microdilution assay. Format: functional, organism-based.
In assay [12] the test system is Salmonella enterica. As to the kind of experiment: Antimicrobial activity against Salmonella enterica HN-GSS2007-0.033 by broth microdilution assay. Format: functional, organism-based.

With `O=C(O)c1cn(C2CC2)c2cc(N3CCNCC3)c(F)cc2c1=O` [CIPROFLOXACIN], the MIC in [1] stood at 0.125 µg/mL (≈ 0.377 µM).

For `CCn1cc(C(=O)O)c(=O)c2ccc(C)nc21` [NALIDIXIC ACID], the MIC came out at 8 µg/mL (≈ 34.4 µM) in the assay with Escherichia coli [2]; 2 µg/mL (≈ 8.61 µM) against Escherichia coli [3]; 8 µg/mL (≈ 34.4 µM) in assay [4]; 8 µg/mL (≈ 34.4 µM) in the assay with Escherichia coli [5]; 4 µg/mL (≈ 17.2 µM) in the assay on Escherichia coli [6]; 2 µg/mL (≈ 8.61 µM) against Escherichia coli [7]. The compound also displayed an MIC against Escherichia coli [8] of 8 µg/mL (≈ 34.4 µM).

Take `CCn1cc(C(=O)O)c(=O)c2cc(F)c(N3CCNCC3)cc21` [NORFLOXACIN]: the result with Salmonella enterica [9], in the assay on Salmonella enterica [10], with Salmonella enterica [11] and with Salmonella enterica [12] was Active. Besides, the MIC stood at 0.125 µg/mL (≈ 0.391 µM) in the assay on Escherichia coli [2]; 0.015 µg/mL (≈ 0.047 µM) against Escherichia coli [3]; 0.5 µg/mL (≈ 1.57 µM) with Escherichia coli [5]; 0.06 µg/mL (≈ 0.188 µM) against Escherichia coli [6]; 0.015 µg/mL (≈ 0.047 µM) in the assay on Escherichia coli [7]; 0.25 µg/mL (≈ 0.783 µM) against Escherichia coli [8].

On to `CC1COc2c(N3CCN(C)CC3)c(F)cc3c(=O)c(C(=O)O)cn1c23` (stereo unspecified) [OFLOXACIN], for which the result in the assay with Salmonella enterica [9], in the assay on Salmonella enterica [10], in the assay on Salmonella enterica [11] and with Salmonella enterica [12] was Active. The minimal inhibitory concentration (MIC) in the assay on Escherichia coli [2] came out at 0.25 µg/mL (≈ 0.692 µM); against Escherichia coli [3] it was 0.032 µg/mL (≈ 0.0886 µM); in the assay on Escherichia coli [6], 0.125 µg/mL (≈ 0.346 µM); against Escherichia coli [8], 0.25 µg/mL (≈ 0.692 µM).

These data come from ChEMBL document CHEMBL1629619, “qnrD, a novel gene conferring transferable quinolone resistance in Salmonella enterica serovar Kentucky and Bovismorbificans strains of human origin” (2009).
